Test [1] deals with T1, κ opioid receptor (Homo sapiens (Human), UniProt P41145). The test can be described thus: κ-opioid receptor radioligand ([3H]-U69,593) dose-displacement binding assay. Particulars: binding affinity, read-out: Opioid Receptor Ki (nM) κ. The protocol: κ-Opioid Receptor Binding Assay Procedures: Membranes from recombinantHEK-293 cells, CHO or U-2 OS cells expressing the recombinant human κ opioid receptor (κ) were prepared by lysing cells in ice cold hypotonic buffer (2.5 mM MgCl2, 50 mM HEPES, pH 7.4) (10 mL/10 cm dish) followed by homogenization with a tissue grinder/Teflon pestle. Membranes were collected by centrifugation at 30,000×g for 15 min at 4° C. and pellets were resuspended in hypotonic buffer to a final concentration of 1-3 mg/mL. Protein concentrations were determined using the BioRad protein assay reagent with bovine serum albumen as standard. Aliquots of κ receptor membranes were stored at −80° C.
Radioligand dose displacement assays used 0.4 nM [^3H]-U69,593 (GE Healthcare, Piscataway, N.J.; 40 Ci/mmole) with 15 μg membrane protein (recombinant κ opioid receptor expressed in HEK 293 cells; in-house prep) in a final volume of 200 μl binding buffer (5% DMSO, 50 mM Trizma base, pH 7.4). Non-specific binding was determined in the presence of 10 μM unlabeled naloxone or U69,593. All reactions were performed in 96-well polypropylene plates for 1 hour at a temperature of about 25° C. Binding reactions were terminated by rapid filtration onto 96-well Unifilter GF/C filter plates (Perkin Elmer, Shelton, Conn.) presoaked in 0.5% polyethylenimine (Sigma). Harvesting was performed using a 96-well tissue harvester (Perkin Elmer, Shelton, Conn.) followed by five filtration washes with 200 μl ice-cold binding buffer. Filter plates were subsequently dried at 50° C. for 1-2 hours. Fifty μl/well scintillation cocktail (Perkin Elmer, Shelton, Conn.) was added and plates were counted in a Packard Top-Count for 1 min/well.
In TABLE 1, binding affinity of certain Compounds of the Invention to the μ-, δ- and κ-opioid receptors was determined as described above.

For test [2], the target named is T2, μ-opioid receptor (Homo sapiens (Human), UniProt P35372). Nature of the test: μ-opioid receptor [35S]GTPγS functional assay, HEK-293 or CHO cells. It is filed as biochemical. Particulars: HEK-293 or CHO cells. The protocol:
(§1) μ-Opioid Receptor Functional Assay Procedures: [^35S]GTPγS functional assays were conducted using freshly thawed μ-receptor membranes prepared in-house from a cell line expressing recombinant μ opioid receptor in a HEK-293, CHO or U-2 OS cell background, or purchased from a commercial source (Perkin Elmer, Shelton, Conn.; or DiscovRx, Fremont, Calif.). Assay reactions were prepared by sequentially adding the following reagents to binding buffer (100 mM NaCl, 10 mM MgCl2, 20 mM HEPES, pH 7.4) on ice (final concentrations indicated): membrane protein (0.026 mg/mL), saponin ([…]), GDP ([…]) and [^35S]GTPγS (0.20 nM; Perkin Elmer, Shelton, Conn.). The prepared membrane solution (190 μl/well) was transferred to 96-shallow well polypropylene plates containing 10 μl of 20× concentrated stock solutions of the agonist [D-Ala^2, N-methyl-Phe^4 Gly-ol^5]-enkephalin (DAMGO) prepared in dimethyl sulfoxide (DMSO). Plates were incubated for 30 min at about 25° C. with shaking. Reactions were terminated by rapid filtration onto 96-well Unifilter GF/B filter plates (Perkin Elmer, Shelton, Conn.) using a 96-well tissue harvester (Perkin Elmer, Shelton, Conn.) followed by three filtration washes with 200 μl of ice-cold wash buffer (10 mM NaH2PO4, 10 mM Na2HPO4, pH 7.4). Filter plates were subsequently dried at 50° C. for 2-3 hours. BetaScint scintillation cocktail (Perkin Elmer, Shelton, Conn.) was added (50 μl/well) and plates were counted using a Packard Top-Count for 1 min/well. Data were analyzed using the sigmoidal dose-response curve fitting functions in GraphPad PRISM v. 3.0, or an in-house function for non-linear, sigmoidal dose-response curve-fitting.
(§2) μ-Opioid Receptor Functional Data: μ GTP EC50 is the concentration of a compound providing 50% of the maximal response for the compound at a μ-opioid receptor.
(§3) μ GTP Emax (%) is the maximal effect elicited by a compound relative to the effect elicited by DAMGO, a standard μ agonist. Generally, the μ GTP Emax (%) value measures the efficacy of a compound to treat or prevent pain or other Conditions.
(§4) In TABLE 2, activity response of certain Compounds of the Invention to the μ-, δ- and κ-opioid receptors was determined as described above for functional assays using HEK-293 or CHO cells.
In general terms: GTPγS resists hydrolysis and so accumulates on activated G proteins.

Test [3] concerns the target T1, κ opioid receptor. Nature of the test: κ-opioid receptor [35S]GTPγS functional assay, HEK-293 or CHO cells. Type of test: biochemical. Particulars: HEK-293 or CHO cells. As for the experimental part:
(§5) κ-Opioid Receptor Functional Assay Procedures: Functional [^35S]GTPγS binding assays were conducted as follows. κ opioid receptor membrane solution was prepared by sequentially adding final concentrations of 0.026 μg/μl κ membrane protein (in-house), 10 μg/mL saponin, 3 μM GDP and 0.20 nM [^35S]GTPγS to binding buffer (100 mM NaCl, 10 mM MgCl2, 20 mM HEPES, pH 7.4) on ice. The prepared membrane solution (190 μl/well) was transferred to 96-shallow well polypropylene plates containing 10 μl of 20× concentrated stock solutions of agonist prepared in DMSO. Plates were incubated for 30 min at a temperature of about 25° C. with shaking. Reactions were terminated by rapid filtration onto 96-well Unifilter GF/B filter plates (Perkin Elmer, Shelton, Conn.) using a 96-well tissue harvester (Packard) and followed by three filtration washes with 200 μl ice-cold binding buffer (10 mM NaH2PO4, 10 mM Na2HPO4, pH 7.4). Filter plates were subsequently dried at 50° C. for 2-3 hours. Fifty μl/well scintillation cocktail (Perkin Elmer, Shelton, Conn.) was added and plates were counted in a Packard Top-Count for 1 min/well.
(§6) κ-Opioid Receptor Functional Data: κ GTP EC50 is the concentration of a compound providing 50% of the maximal response for the compound at a κ receptor.
(§7) κ GTP Emax (%) is the maximal effect elicited by a compound relative to the effect elicited by U69,593.
as §4

Test [4] addresses T2, μ-opioid receptor. Nature of the test: μ-opioid receptor [35S]GTPγS functional assay, U-2 OS cells. It is filed as biochemical. Particulars: for Emax: relative to DAMGO, U-2 OS cells. As for the experimental part: as §1, §2, §3
(§8) The following TABLE 3 provides results on the activity response of certain Compounds of the Invention at the μ- and κ-opioid receptors determined as described above using U-2 OS cells.

Test [5] has as its target T1, κ opioid receptor. Nature of the test: κ-opioid receptor [35S]GTPγS functional assay, U-2 OS cells. It is filed as biochemical. Particulars: for Emax: relative to U69,593, U-2 OS cells. The protocol: as §5, §6, §7, §8

Regarding “(4bS,4′S,8aR,9R)-11-(cyclopropylmethyl)-3-hydroxy-5,7,8,8a,9,10-hexahydrospiro[9,4b-(epiminoethano)phenanthrene-6,4′-imidazolidin]-2′-one [Compound 8]”, at κ opioid receptor [1], the Ki – broadly, a dissociation constant, usually derived from enzyme kinetics or from competition with a known ligand – stood at 0.2 ± 0.05 nM. Moreover, the EC50 (in general, the concentration needed to bring the measured effect to its halfway point) on μ-opioid receptor [2] (GTPγS, read-out: Opioid Receptor μ EC50) is 7.39 ± 1.89 nM; on κ opioid receptor [3] (GTPγS, read-out: Opioid Receptor κ EC50) it was 27.2 ± 8.1 nM. In addition, the “Opioid Receptor μ Emax (%)” value at μ-opioid receptor [2] (relative to DAMGO) came to 39.67 ± 3.28%. Besides, the “Opioid Receptor κ Emax (%)” value on κ opioid receptor [3] (relative to U69,593) is listed as 91.33 ± 5.04%.
With `O=C1NC(=O)[C@@]2(CC[C@@]3(O)[C@H]4Cc5ccc(O)cc5[C@@]3(CCN4CCCC(F)(F)F)C2)N1` [Compound 34, (4bR,4′S,8aS,9R)-3,8a-dihydroxy-11-(4,4,4-trifluorobutyl)-5,7,8,8a,9,10-hexahydrospiro[9,4b-(epiminoethano)phenanthrene-6,4′-imidazolidine]-2′,5′-dione], on μ-opioid receptor [4], a half-maximal response (EC50) required 869 ± 131 nM and the Emax (as a rule, the maximal effect, on the per cent scale that the assay sets) turned out to be 47 ± 2.08%. In addition, on κ opioid receptor [5], the EC50 amounted to 2240 ± 120 nM and the Emax was determined as 87.7 ± 3.28%.
At μ-opioid receptor [4], `CCN1C(=O)N(CC)[C@]2(CC[C@@]3(O)[C@H]4Cc5ccc(O)cc5[C@@]3(CCN4C)C2)C1=O` [Compound 62, (4S,4b′R,8a′S,9′R)-1,3-diethyl-3′,8a′-dihydroxy-11′-methyl-8′,8a′,9′,10′-tetrahydro-5′H,7′H-spiro[imidazolidine-4,6′-[9,4b](epiminoethano)phenantrene]-2,5-dione] displayed an EC50 of 75.2 ± 3.36 nM and an Emax of 78 ± 0.58%. On κ opioid receptor [5], this compound returned an EC50 of 711 ± 37.8 nM and a maximum response (Emax) of 108 ± 2.52%.
For `COc1ccc2c(c1)[C@]13CCN(CCCc4ccccc4)[C@H](C2)[C@]1(O)CC[C@@]1(C3)NC(=O)NC1=O` [Compound 26, (4bR,4′S,8aS,9R)-8a-hydroxy-3-methoxy-11-(3-phenylpropyl)-5,7,8,8a,9,10-hexahydrospiro[9,4b-(epiminoethano)phenanthrene-6,4′-imidazolidine]-2′,5′-dione], the EC50 on μ-opioid receptor [4] and on κ opioid receptor [5] was > 20000 nM throughout. Further, the Emax came out at 26.7 ± 11.7% at μ-opioid receptor [4] and 63 ± 8.72% at κ opioid receptor [5].
In the case of `COc1ccc2c(c1)[C@]13CCN(CCF)[C@H](C2)[C@]1(O)CC[C@@]1(C3)NC(=O)NC1=O` [Compound 14, (4bR,4′S,8aS,9R)-1-(2-fluoroethyl)-8a-hydroxy-3-methoxy-5,7,8,8a,9,10-hexahydrospiro[9,4b-(epiminoethano)phenanthrene-6,4′-imidazolidine]-2′,5′-dione], on μ-opioid receptor [4], the EC50 is > 20000 nM and the Emax stood at 14.5%. Besides, on κ opioid receptor [5], the EC50 is > 20000 nM and the maximal response (Emax) worked out at 110 ± 6.74%.
As for `COc1ccc2c(c1)[C@]13CCN(CC4CCOCC4)[C@H](C2)[C@]1(O)CC[C@@]1(C3)NC(=O)NC1=O` [Compound 25, (4bR,4′S,8aS,9R)-8a-hydroxy-3-methoxy-11-((tetrahydro-2H-pyran-4-yl)methyl)-5,7,8,8a,9,10-hexahydrospiro[9,4b-(epiminoethano)phenanthrene-6,4′-imidazolidine]-2′,5′-dione], on μ-opioid receptor [4], the EC50 is > 20000 nM and the Emax worked out at 6.67 ± 0.88%. In addition, on κ opioid receptor [5], the EC50 was > 20000 nM and the Emax was found to be 10 ± 4.6%.
As for `C=C(C)CCN1CC[C@]23C[C@]4(CC[C@@]2(O)[C@H]1Cc1ccc(O)cc13)NC(=O)NC4=O` [Compound 37, (4bR,4′S,8aS,9R)-3,8a-dihydroxy-11-(3-methylbut-3-en-1-yl)-5,7,8,8a,9,10-hexahydrospiro[9,4b-(epiminoethano)phenanthrene-6,4′-imidazolidine]-2′,5′-dione], at μ-opioid receptor [4], the response was half-maximal at 18.7 ± 2.53 nM (EC50) and the maximal response (Emax) was 92 ± 5%. On κ opioid receptor [5], this compound had an EC50 of 33.5 ± 9.67 nM and an Emax of 101 ± 1.76%.
For `COc1ccc2c(c1)[C@]13CCN(CCCC(F)(F)F)[C@H](C2)[C@]1(O)CC[C@@]1(C3)NC(=O)NC1=O` [Compound 18, (4bR,4′S,8aS,9R)-8a-hydroxy-3-methoxy-11-(4,4,4-trifluorobutyl)-5,7,8,8a,9,10-hexahydrospiro[9,4b-(epiminoethano)phenanthrene-6,4′-imidazolidine]-2′,5′-dione] the same measures were > 20000 nM, 20.7 ± 4.81%, > 20000 nM and 86 ± 7.21%.
For the compound `O=C1NC(=O)[C@@]2(CC[C@@]3(O)[C@H]4Cc5ccc(O)cc5[C@@]3(CCN4CCC(F)(F)F)C2)N1` [Compound 33, (4bR,4′S,8aS,9R)-3,8a-dihydroxy-11-(3,3,3-trifluoropropyl)-5,7,8,8a,9,10-hexahydrospiro[9,4b-(epiminoethano)phenanthrene-6,4′-imidazolidine]-2′,5′-dione], at μ-opioid receptor [4], the EC50 came to 272 ± 18 nM and the maximal response (Emax) amounted to 39.7 ± 1.86%. On κ opioid receptor [5], this compound had an EC50 of 393 ± 13.5 nM and an Emax of 98.3 ± 1.45%.
The like results for `COc1ccc2c(c1)[C@]13CCN(CCC(C)C)[C@H](C2)[C@]1(O)CC[C@@]1(C3)NC(=O)NC1=O` [Compound 22, (4bR,4′S,8aS,9R)-8a-hydroxy-11-isopentyl-3-methoxy-5,7,8,8a,9,10-hexahydrospiro[9,4b-(epiminoethano)phenanthrene-6,4′-imidazolidine]-2′,5′-dione] were, in that order, 3960 ± 1410 nM, 46 ± 6%, > 20000 nM and 91.3 ± 6.57%.
For `O=C1NC(=O)[C@@]2(CC[C@@]3(O)[C@H]4Cc5ccc(O)cc5[C@@]3(CCN4CCCc3ccccc3)C2)N1` [Compound 36, (4bR,4′S,8aS,9R)-3,8a-dihydroxy-11-(3-phenylpropyl)-5,7,8,8a,9,10-hexahydrospiro[9,4b-(epiminoethano)phenanthrene-6,4′-imidazolidine]-2′,5′-dione] the same measures were 442 ± 21.2 nM, 77.7 ± 3.53%, 2500 ± 277 nM and 84.3 ± 2.6%.

The values above are taken from patent US8987287B2, “Spirocyclic morphinans and their use” (Purdue Pharma L.P., priority 2012, dated 2015).
